Data on 36 compounds can be found in US20020183309A1, “Novel amines as histamine-3 receptor ligands and their therapeutic applications” (priority 2001, published 2002).

pKi: −log10 of the molar value.

For the first assay, the target named is T1, histamine-3 receptors (H3 receptor) (Rattus norvegicus, UniProt Q9QYN8).
T1 construct: from tissue; host or cells: male Sprague-Dawley rat brain cortex membranes
T1 sequence (Q9QYN8 whole entry): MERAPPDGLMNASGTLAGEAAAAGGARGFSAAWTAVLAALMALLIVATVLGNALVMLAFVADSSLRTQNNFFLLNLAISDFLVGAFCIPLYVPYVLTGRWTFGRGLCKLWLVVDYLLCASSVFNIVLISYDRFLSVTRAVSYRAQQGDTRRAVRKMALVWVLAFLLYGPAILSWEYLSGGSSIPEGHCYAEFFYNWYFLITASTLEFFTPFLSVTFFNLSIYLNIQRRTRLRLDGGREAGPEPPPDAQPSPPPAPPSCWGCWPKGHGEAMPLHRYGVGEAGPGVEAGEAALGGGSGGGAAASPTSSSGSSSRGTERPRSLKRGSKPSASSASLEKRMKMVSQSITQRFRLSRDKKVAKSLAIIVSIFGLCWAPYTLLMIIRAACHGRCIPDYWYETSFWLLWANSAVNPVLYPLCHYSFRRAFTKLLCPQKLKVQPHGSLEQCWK
The assay is described as follows: (3H)-N-α-methylhistamine binding to rat cortical membranes.
Conditions: not given
On the procedure:
Briefly, male Sprague-Dawley rat brain cortices were homogenized (1 g tissue/10 mL buffer) in 50 mM Tris-HCl/5 mM EDTA containing protease inhibitor cocktail (Calbiochem) using a polytron set at 20,500 rpm. Homogenates were centrifuged for 20 minutes at 40,000×g. The supernatant was decanted, and pellets were weighed. The pellet was resuspended by polytron homogenization in 40 mL 50 mM Tris-HCl/5 mM EDTA with protease inhibitors and centrifuged for 20 minutes at 40,000×g. […] Rat cortical membranes (12 mg wet weight/tube) were incubated with (^3H)-N-α-methylhistamine (˜0.6 nM) with or without H3 receptor antagonists in a total incubation volume of 0.5 mL of 50 mM Tris-HCl/5 mM EDTA (pH 7.7). Test compounds were dissolved in DMSO to provide a 20 mM solution, serially diluted and then added to the incubation mixtures prior to initiating the incubation assay by addition of the membranes. Thioperamide (3 μM) was used to determine nonspecific binding. Binding incubations were conducted for 30 minutes at 25° C. and terminated by addition of 2 mL of ice cold 50 mM Tris-HCl (pH 7.7) and filtration through 0.3% polyethylenimine-soaked Unifilter plates (Packard). These filters were washed 4 additional times with 2 mL of ice-cold 50 mM Tris-HCl and dried for 1 hour. Radioactivity was determined using liquid scintillation counting techniques. Results were analyzed by Hill transformation and Ki values were determined using the Cheng-Prusoff equation.
Compound `CN(C)[C@H]1CCN(CCc2cc3cc(-c4ccc(C#N)cc4)ccc3o2)C1` [Example 9, 4-(2-{2-[(3S)-3-(dimethylamino)pyrrolidinyl]ethyl}-1-benzofuran-5-yl)benzonitrile] gave a pKi of 6.87.

The assay is the same for the next values; noted with them: male Sprague-Dawley rat brain cortical membranes; (3H)-N-α-methylhistamine ~0.6 nM; 30 minutes at 25° C.; Cheng-Prusoff equation; read-out: Ki.
Take `CC(C)CN(C)CCc1cc2cc(-c3ccc(C#N)cc3)ccc2o1` [Example 20, 4-(2-{2-[isobutyl(methyl)amino]ethyl}-1-benzofuran-5-yl)benzonitrile]: the negative logarithm of the Ki (pKi) is 6.74. Same read-out and setting: in the case of `N#Cc1ccc(-c2ccc3oc(CCN4CC=CCC4)cc3c2)cc1` [Example 16, 4-{2-[2-(3,6-dihydro-1(2H)-pyridinyl)ethyl]-1-benzofuran-5-yl}benzonitrile] it was 7.04; in that of `CC(C)N(C)CCc1cc2cc(-c3ccc(C(=O)N4CCOCC4)cn3)ccc2o1` [Example 56, N-isopropyl-N-methyl-N-(2-{5-[5-(4-morpholinylcarbonyl)-2-pyridinyl]-1-benzofuran-2-yl}ethyl)amine], 6.98; in that of `Cc1cc(C(=O)c2ccc3oc(CCN4CCC[C@H]4C)cc3c2)ccc1Cl` [Example 77, (4-chloro-3-methylphenyl)(2-{2-[(2R)-2-methyl-1-pyrrolidinyl]ethyl}-1-benzofuran-5-yl)methanone], 8.22.

As to `C[C@@H]1CCCN1CCc1cc2cc(C(=O)c3cccc(Cl)c3)ccc2o1` [Example 71, (3-chlorophenyl)(2-{2-[(2R)-2-methyl-1-pyrrolidinyl]ethyl}-1-benzofuran-5-yl)methanone], the pKi is 8.70.

Consider `O=C(c1ccc(-c2ccc3oc(CCNCCCO)cc3c2)nc1)N1CCOCC1` [Example 64, 3-[(2-{5-[5-(4-morpholinylcarbonyl)-2-pyridinyl]-1-benzofuran-2-yl}ethyl)amino]-1-propanol], for which the negative-log Ki (pKi) was 6.00. Consider `CN(CCc1cc2cc(-c3ccc(C(=O)N4CCOCC4)cc3)ccc2o1)C(C)(C)C` [Example 35, N-(tert-butyl)-N-methyl-N-(2-{5-[4-(4-morpholinylcarbonyl)phenyl]-1-benzofuran-2-yl}ethyl)amine], for which the negative logarithm of the Ki (pKi) is 7.17. Same read-out and setting: for `CN(C)CCc1cc2cc(-c3ccc(C(=O)N4CCOCC4)cc3)ccc2o1` [Example 39, N,N-dimethyl-N-(2-{5-[4-(4-morpholinylcarbonyl)phenyl]-1-benzofuran-2-yl}ethyl)amine] the value was 6.83. Turning to `O=C(c1ccc(-c2ccc3oc(CCN4CCCCC4)cc3c2)nc1)N1CCOCC1` [Example 46, 4-[(6-{2-[2-(1-piperidinyl)ethyl]-1-benzofuran-5-yl}-3-pyridinyl)carbonyl]morpholine], the pKi is 7.73. Still for that read-out and setting: in the case of `CN(CCc1cc2cc(-c3ccc(C(=O)N4CCOCC4)cn3)ccc2o1)C(C)(C)C` [Example 54, N-(tert-butyl)-N-methyl-N-(2-{5-[5-(4-morpholinylcarbonyl)-2-pyridinyl]-1-benzofuran-2-yl}ethyl)amine] it was 6.71; in that of `CCCN(CC)CCc1cc2cc(-c3ccc(C#N)cc3)ccc2o1` [Example 22, 4-(2-{2-[ethyl(propyl)amino]ethyl}-1-benzofuran-5-yl)benzonitrile], 7.16. Same read-out and setting: in the case of `CCN(CC)CCc1cc2cc(-c3ccc(C(=O)N4CCOCC4)cn3)ccc2o1` [Example 47, 4-[(6-{2-[2-(N,N-diethyl)ethyl]-1-benzofuran-5-yl}-3-pyridinyl)carbonyl]morpholine] it was 7.22; in that of `COc1cccc(C(=O)c2ccc3oc(CCN4CCC[C@H]4C)cc3c2)c1` [Example 83, (3-methoxyphenyl)(2-{2-[(2R)-2-methyl-1-pyrrolidinyl]ethyl}-1-benzofuran-5-yl)methanone], 8.96. In the case of `CN(CCc1cc2cc(-c3ccc(C#N)cc3)ccc2o1)C(C)(C)C` [Example 18, 4-(2-{2-[tert-butyl (methyl)amino]ethyl}-1-benzofuran-5-yl)benzonitrile], the pKi was 7.22.

Consider `CCCN(CC)CCc1cc2cc(-c3ccc(C(=O)N4CCOCC4)cn3)ccc2o1` [Example 59, N-ethyl-N-propyl-N-(2-{5-[5-(4-morpholinylcarbonyl)-2-pyridinyl]-1-benzofuran-2-yl}ethyl)amine], for which the negative logarithm of the Ki (pKi) was 7.10. Same read-out and setting: for `CCC(CC)CC(=O)c1ccc2oc(CCN3CCC[C@H]3C)cc2c1` [Example 76, 3-ethyl-1-(2-{2-[(2R)-2-methyl-1-pyrrolidinyl]ethyl}-1-benzofuran-5-yl)-1-pentanone] the value was 8.40; for `CN(C)CCc1cc2cc(-c3ccc(C(=O)N4CCOCC4)cn3)ccc2o1` [Example 58, N,N-dimethyl-N-(2-{5-[5-(4-morpholinylcarbonyl)-2-pyridinyl]-1-benzofuran-2-yl}ethyl)amine], 6.88; for `CCN(CCc1cc2cc(-c3ccc(C#N)cc3)ccc2o1)C(C)C` [Example 21, 4-(2-{2-[ethyl(isopropyl)amino]ethyl}-1-benzofuran-5-yl)benzonitrile], 7.35. Still for that read-out and setting: in the case of `CC1CCCN1CCc1cc2cc(-c3ccc(C(=O)N4CCOCC4)cc3)ccc2o1` (stereo not drawn) [Example 23, 4-(4-{2-[2-(2-methyl-1-pyrrolidinyl)ethyl]-1-benzofuran-5-yl}benzoyl)morpholine] it was 8.71. The same measure, in the same setting: in the case of `COC(=O)[C@@H]1CCCN1CCc1cc2cc(-c3ccc(C#N)cc3)ccc2o1` [Example 15, 4-(2-{2-[2-pyrrolidinemethyl carboxylate]ethyl}-1-benzofuran-5-yl)benzonitrile] it was 6.00.

Turning to `O=C(c1ccc(-c2ccc3oc(CCN4CCCCC4)cc3c2)cc1)N1CCOCC1` [Example 24, 4-(4-{2-[2-(1-piperidinyl)ethyl]-1-benzofuran-5-yl}benzoyl)morpholine], the negative-log Ki (pKi) was 7.93. Turning to `O=C(c1ccc(-c2ccc3oc(CCN4CCOCC4)cc3c2)cc1)N1CCOCC1` [Example 32, 4-(4-{2-[2-(4-morpholine)ethyl]-1-benzofuran-5-yl}benzoyl)morpholine], the pKi was 6.58.

With `O=C(c1ccc(-c2ccc3oc(CCN4CC5CC4CO5)cc3c2)nc1)N1CCOCC1` (stereo not drawn) [Example 61, 5-(2-{5-[5-(4-morpholinylcarbonyl)-2-pyridinyl]-1-benzofuran-2-yl}ethyl)-2-oxa-5-azabicyclo[2.2.1]heptane], the negative logarithm of the Ki (pKi) is 6.84. The same measure, in the same setting: for `CC1CCN(CCc2cc3cc(-c4ccc(C(=O)N5CCOCC5)cn4)ccc3o2)CC1` [Example 52, 4-[(6-{2-[2-(4-methyl-1-piperidinyl)ethyl]-1-benzofuran-5-yl}-3-pyridinyl)carbonyl]morpholine] the value was 6.79; for `CCN(CC)CCc1cc2cc(-c3ccc(C#N)cc3)ccc2o1` [Example 5, 4-{2-[2-(diethylamino)ethyl]-1-benzofuran-5-yl}benzonitrile], 7.31.

As for `C[C@@H]1CC[C@@H](C)N1CCc1cc2cc(-c3ccc(C(=O)N4CCOCC4)cn3)ccc2o1` [Example 49, 4-{[6-(2-{2-[(2R,5R)-2,5-dimethylpyrrolidinyl]ethyl}-1-benzofuran-5-yl)-3-pyridinyl]carbonyl}morpholine], the pKi is 7.84.

Take `Cc1c(CCN2CCCCC2)c(=O)oc2ccc(-c3ccc(C#N)cc3)cc12` [Example 42, 4-{4-methyl-2-oxo-3-[2-(1-piperidinyl)ethyl]-2H-chromen-6-yl}benzonitrile]: the pKi was 7.38. On the same count and under the same terms, in the case of `O=C(c1ccc(-c2ccc3oc(CCN4CCCCCC4)cc3c2)nc1)N1CCOCC1` [Example 51, 4-{[6-(2-{2-[1-azepanyl]ethyl}-1-benzofuran-5-yl)-3-pyridinyl]carbonyl}morpholine] it was 8.51; in that of “4-(2-{2-[(2R,6S)-2,6-dimethylpiperidinyl]ethyl}-1-benzofuran-5-yl)benzonitrile [Example 11]”, 7.71; in that of `O=C(c1ccc(-c2ccc3oc(CCN4CCOCC4)cc3c2)nc1)N1CCOCC1` [Example 53, 4-[(6-{2-[2-(4-morpholinyl)ethyl]-1-benzofuran-5-yl}-3-pyridinyl)carbonyl]morpholine], 6.62. Same read-out and setting: in the case of `CCCN(CC)CCc1cc2cc(-c3ccc(C(=O)N4CCOCC4)cc3)ccc2o1` [Example 40, N-ethyl-N-(2-{5-[4-(4-morpholinylcarbonyl)phenyl]-1-benzofuran-2-yl}ethyl)-N-propylamine] it was 7.49; in that of `CCN(CCc1cc2cc(-c3ccc(C(=O)N4CCOCC4)cn3)ccc2o1)C(C)C` [Example 57, N-ethyl-N-isopropyl-N-(2-{5-[5-(4-morpholinylcarbonyl)-2-pyridinyl]-1-benzofuran-2-yl}ethyl)amine], 6.94; in that of `Cc1c(CCN2CCCC2)c(=O)oc2ccc(-c3ccc(C#N)cc3)cc12` [Example 41, 4-{4-methyl-2-oxo-3-[2-(1-pyrolidinyl)ethyl]-2H-chromen-6-yl}benzonitrile], 7.29. For `CC(C)CN(C)CCc1cc2cc(-c3ccc(C(=O)N4CCOCC4)cc3)ccc2o1` [Example 37, N-isobutyl-N-methyl-N-(2-{5-[4-(4-morpholinylcarbonyl)phenyl]-1-benzofuran-2-yl}ethyl)amine], the pKi was 6.61.

In the case of `CC(C)CN(C)CCc1cc2cc(-c3ccc(C(=O)N4CCOCC4)cn3)ccc2o1` [Example 55, N-isobutyl-N-methyl-N-(2-{5-[5-(4-morpholinylcarbonyl)-2-pyridinyl]-1-benzofuran-2yl}ethyl)amine], the pKi is 6.24.

Usually pKi stands for −log10 of the Ki, conventionally taken in molar units.
